Source: the NIST ThermoML archive (doi:10.1021/je900722m)

Assay: xn = mol fraction of the nth substance listed
Conditions: 101 kPa, Liquid

CC(C)(C)O [2-methylpropan-2-ol] + CCCCO
Conditions	mass density [kg/m3]	viscosity [mPa·s]
308.15 K, x2 = 0.1017	774.752	3.438
308.15 K, x2 = 0.2006	778.293	3.374
308.15 K, x2 = 0.3008	781.316	3.302
308.15 K, x2 = 0.4005	784.068	3.22
308.15 K, x2 = 0.5011	786.651	3.125
308.15 K, x2 = 0.6002	789.119	3.021
308.15 K, x2 = 0.6975	791.52	2.912
308.15 K, x2 = 0.7987	793.957	2.791
308.15 K, x2 = 0.8978	796.247	2.667
313.15 K, x2 = 0.1017	769.698	2.787
313.15 K, x2 = 0.2006	773.439	2.763
313.15 K, x2 = 0.3008	776.66	2.733
313.15 K, x2 = 0.4005	779.566	2.693
313.15 K, x2 = 0.5011	782.289	2.64
313.15 K, x2 = 0.6002	784.884	2.577
313.15 K, x2 = 0.6975	787.385	2.508
313.15 K, x2 = 0.7987	789.899	2.429
313.15 K, x2 = 0.8978	792.264	2.347
318.15 K, x2 = 0.1017	764.541	2.299
318.15 K, x2 = 0.2006	768.484	2.302
318.15 K, x2 = 0.3008	771.902	2.298
318.15 K, x2 = 0.4005	774.974	2.284
318.15 K, x2 = 0.5011	777.844	2.258
318.15 K, x2 = 0.6002	780.565	2.223
318.15 K, x2 = 0.6975	783.18	2.182
318.15 K, x2 = 0.7987	785.795	2.131
318.15 K, x2 = 0.8978	788.241	2.076
323.15 K, x2 = 0.1017	759.283	1.922
323.15 K, x2 = 0.2006	763.421	1.942
323.15 K, x2 = 0.3008	767.037	1.956
323.15 K, x2 = 0.4005	770.272	1.957
323.15 K, x2 = 0.5011	773.307	1.95
323.15 K, x2 = 0.6002	776.162	1.934
323.15 K, x2 = 0.6975	778.901	1.91
323.15 K, x2 = 0.7987	781.617	1.877
323.15 K, x2 = 0.8978	784.158	1.841
328.15 K, x2 = 0.1017	753.923	1.635
328.15 K, x2 = 0.2006	758.252	1.666
328.15 K, x2 = 0.3008	762.068	1.69
328.15 K, x2 = 0.4005	765.483	1.704
328.15 K, x2 = 0.5011	768.677	1.709
328.15 K, x2 = 0.6002	771.695	1.704
328.15 K, x2 = 0.6975	774.542	1.692
328.15 K, x2 = 0.7987	777.372	1.672
328.15 K, x2 = 0.8978	780.002	1.65
333.15 K, x2 = 0.1017	748.453	1.406
333.15 K, x2 = 0.2006	752.974	1.439
333.15 K, x2 = 0.3008	756.986	1.466
333.15 K, x2 = 0.4005	760.579	1.486
333.15 K, x2 = 0.5011	763.946	1.5
333.15 K, x2 = 0.6002	767.111	1.504
333.15 K, x2 = 0.6975	770.1	1.501
333.15 K, x2 = 0.7987	773.05	1.492
333.15 K, x2 = 0.8978	775.796	1.478
338.15 K, x2 = 0.1017	742.882	1.221
338.15 K, x2 = 0.2006	747.587	1.254
338.15 K, x2 = 0.3008	751.795	1.282
338.15 K, x2 = 0.4005	755.568	1.306
338.15 K, x2 = 0.5011	759.113	1.324
338.15 K, x2 = 0.6002	762.433	1.335
338.15 K, x2 = 0.6975	765.569	1.339
338.15 K, x2 = 0.7987	768.651	1.34
338.15 K, x2 = 0.8978	771.52	1.335
343.15 K, x2 = 0.1017	737.201	1.07
343.15 K, x2 = 0.2006	742.083	1.103
343.15 K, x2 = 0.3008	746.492	1.131
343.15 K, x2 = 0.4005	750.446	1.156
343.15 K, x2 = 0.5011	754.166	1.177
343.15 K, x2 = 0.6002	757.655	1.191
343.15 K, x2 = 0.6975	760.941	1.2
343.15 K, x2 = 0.7987	764.169	1.207
343.15 K, x2 = 0.8978	767.155	1.208

CCC(C)O (stereo unspecified) [butan-2-ol] + CCCCO
Conditions	mass density [kg/m3]	viscosity [mPa·s]
303.15 K, x2 = 0.1008	798.816	3.157
303.15 K, x2 = 0.2005	799.24	3.08
303.15 K, x2 = 0.3002	799.646	3.027
303.15 K, x2 = 0.4006	800.045	2.987
303.15 K, x2 = 0.5004	800.435	2.956
303.15 K, x2 = 0.6005	800.827	2.932
303.15 K, x2 = 0.6999	801.204	2.912
303.15 K, x2 = 0.7989	801.568	2.894
303.15 K, x2 = 0.8988	801.909	2.875
308.15 K, x2 = 0.1008	794.588	2.679
308.15 K, x2 = 0.2005	795.059	2.65
308.15 K, x2 = 0.3002	795.516	2.626
308.15 K, x2 = 0.4006	795.957	2.609
308.15 K, x2 = 0.5004	796.396	2.595
308.15 K, x2 = 0.6005	796.828	2.583
308.15 K, x2 = 0.6999	797.242	2.57
308.15 K, x2 = 0.7989	797.635	2.557
308.15 K, x2 = 0.8988	798.014	2.545
313.15 K, x2 = 0.1008	790.266	2.312
313.15 K, x2 = 0.2005	790.801	2.299
313.15 K, x2 = 0.3002	791.313	2.288
313.15 K, x2 = 0.4006	791.795	2.283
313.15 K, x2 = 0.5004	792.279	2.278
313.15 K, x2 = 0.6005	792.762	2.275
313.15 K, x2 = 0.6999	793.224	2.272
313.15 K, x2 = 0.7989	793.655	2.268
313.15 K, x2 = 0.8988	794.069	2.264
318.15 K, x2 = 0.1008	785.851	1.982
318.15 K, x2 = 0.2005	786.455	1.981
318.15 K, x2 = 0.3002	787.036	1.981
318.15 K, x2 = 0.4006	787.575	1.982
318.15 K, x2 = 0.5004	788.113	1.986
318.15 K, x2 = 0.6005	788.64	1.992
318.15 K, x2 = 0.6999	789.157	1.999
318.15 K, x2 = 0.7989	789.625	2.007
318.15 K, x2 = 0.8988	790.08	2.013
323.15 K, x2 = 0.1008	781.329	1.723
323.15 K, x2 = 0.2005	782.01	1.737
323.15 K, x2 = 0.3002	782.667	1.75
323.15 K, x2 = 0.4006	783.274	1.763
323.15 K, x2 = 0.5004	783.873	1.773
323.15 K, x2 = 0.6005	784.456	1.782
323.15 K, x2 = 0.6999	785.021	1.79
323.15 K, x2 = 0.7989	785.535	1.795
323.15 K, x2 = 0.8988	786.04	1.798
328.15 K, x2 = 0.1008	776.706	1.506
328.15 K, x2 = 0.2005	777.468	1.525
328.15 K, x2 = 0.3002	778.208	1.543
328.15 K, x2 = 0.4006	778.887	1.56
328.15 K, x2 = 0.5004	779.553	1.576
328.15 K, x2 = 0.6005	780.198	1.59
328.15 K, x2 = 0.6999	780.817	1.602
328.15 K, x2 = 0.7989	781.386	1.612
328.15 K, x2 = 0.8988	781.936	1.621
333.15 K, x2 = 0.1008	771.968	1.327
333.15 K, x2 = 0.2005	772.822	1.349
333.15 K, x2 = 0.3002	773.649	1.369
333.15 K, x2 = 0.4006	774.407	1.387
333.15 K, x2 = 0.5004	775.144	1.405
333.15 K, x2 = 0.6005	775.861	1.421
333.15 K, x2 = 0.6999	776.534	1.434
333.15 K, x2 = 0.7989	777.165	1.447
333.15 K, x2 = 0.8988	777.765	1.457
338.15 K, x2 = 0.1008	767.116	1.178
338.15 K, x2 = 0.2005	768.057	1.201
338.15 K, x2 = 0.3002	768.985	1.224
338.15 K, x2 = 0.4006	769.83	1.242
338.15 K, x2 = 0.5004	770.644	1.258
338.15 K, x2 = 0.6005	771.436	1.275
338.15 K, x2 = 0.6999	772.174	1.29
338.15 K, x2 = 0.7989	772.85	1.302
338.15 K, x2 = 0.8988	773.53	1.315
343.15 K, x2 = 0.1008	762.161	1.055
343.15 K, x2 = 0.2005	763.194	1.08
343.15 K, x2 = 0.3002	764.213	1.102
343.15 K, x2 = 0.4006	765.15	1.121
343.15 K, x2 = 0.5004	766.048	1.138
343.15 K, x2 = 0.6005	766.918	1.155
343.15 K, x2 = 0.6999	767.729	1.171
343.15 K, x2 = 0.7989	768.484	1.184
343.15 K, x2 = 0.8988	769.214	1.197
